Usually AC50 stands for the midpoint of the concentration-response curve, whichever way the signal moves. One may read the Ki as the dissociation constant of the complex between target and ligand, obtained from inhibition or displacement.

Here are results for 24 compounds from patent US20230219906A1, “MACROCYCLIC-2-AMINO-3-FLUORO-BUT-3-ENAMIDES AS INHIBITORS OF MCL-1” (Janssen Pharmaceutica NV, priority 2020, published 2023).

The test system of test [1] is MOLP-8 human multiple myeloma cell line. The test can be described thus: Caspase-Glo 3/7 apoptosis induction assay in MOLP-8 cells. The following applies: caspase-3/7 activity, 2 hours at 37° C., averaged over all runs on all batches, read-out: MOLP8 AC50. In kind it is cell-based. The procedure, abridged: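 MOLP-8 cells were treated for 2 h at 37° C with 10-dose, 1/3 serial dilutions ([…], 0.5% DMSO final, duplicates). Caspase-3/7 activity was read by Caspase-Glo luminescence 30 min after reagent addition. % effect was normalised between low (1% DMSO) and high (positive control) controls.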

The target of test [2] is Myeloid Cell Leukemia 1(Mcl-1) (Homo sapiens, UniProt Q07820). Kind of test: Terbium labeled Mcl-1 HTRF binding assay with Cy5-labeled BIM BH3 peptide. The following applies: displacement of Cy5 Bim BH3 peptide; Ki=IC50/(1+[L]/Kd), [L]=8 nM, Kd=10 nM; 60 minutes at room temperature; read-out: Tb-MCL1 Ki. Summed up:
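TR-FRET displacement of Cy5-BIM BH3 peptide (8 nM; Kd 10 nM) from 25 pM Tb-labelled Mcl-1 in 10 mM Tris-HCl pH 7.5, 150 mM NaCl, 2 mM DTT, 0.0025% Tween-20, 0.1 mg/mL BSA, 1% DMSO. 60 min at room temperature; 665/620 nm ratio normalized to controls, IC50 from 11-point curve.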
For orientation: Time-resolved FRET reads energy transfer from a long-lived donor to a nearby acceptor.

Where two headings read alike, the source gives them in different places.

Sequence of Myeloid Cell Leukemia 1(Mcl-1) (Q07820 whole entry): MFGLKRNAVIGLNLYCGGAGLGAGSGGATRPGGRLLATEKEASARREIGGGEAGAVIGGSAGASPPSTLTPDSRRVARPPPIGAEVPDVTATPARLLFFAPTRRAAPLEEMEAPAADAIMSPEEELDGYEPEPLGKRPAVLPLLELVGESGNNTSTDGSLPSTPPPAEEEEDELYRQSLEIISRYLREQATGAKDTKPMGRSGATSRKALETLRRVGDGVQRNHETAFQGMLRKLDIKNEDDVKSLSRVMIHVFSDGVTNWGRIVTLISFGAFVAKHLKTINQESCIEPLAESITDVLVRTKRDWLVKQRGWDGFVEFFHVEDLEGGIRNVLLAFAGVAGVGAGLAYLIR

On to `C[C@@H]1[C@@H](C)C/C=C(\F)[C@H](C(=O)N(C)CC2CCCCO2)N2CCC[C@H]2CN2C[C@@]3(CCCc4cc(Cl)ccc43)COc3ccc(cc32)C(=O)NS1(=O)=O` (single isomer, unassigned) [Compound 72], for which, in test [1], the concentration at half-maximal activity (AC50) amounted to 75.2 nM. Also, the Ki in test [2] was determined as 0.061 nM.
Regarding `C[C@@H]1[C@@H](C)C/C=C(\F)[C@H](C(=O)N2CCOC(C(F)(F)F)C2)N2CCC[C@H]2CN2C[C@@]3(CCCc4cc(Cl)ccc43)COc3ccc(cc32)C(=O)NS1(=O)=O` (single isomer, unassigned) [Compound 20], the half-maximal activity concentration (AC50) in test [1] (Homo sapiens, MOLP-8, 2 h) came to 193 nM. For the same compound, the Ki in test [2] amounted to 0.255 nM.
Regarding `C[C@@H]1[C@@H](C)C/C=C(\F)[C@H](C(=O)N(C)CC2OCCO2)N2CCC[C@H]2CN2C[C@@]3(CCCc4cc(Cl)ccc43)COc3ccc(cc32)C(=O)NS1(=O)=O` [Compound 79], in test [1] (Homo sapiens, MOLP-8, 2 h), the AC50 was found to be 106 nM. For the same compound, the Ki in test [2] was found to be 0.038 nM.
In the case of `COCCN1CCC(CN(C)C(=O)[C@H]2/C(F)=C/C[C@H](C)[C@@H](C)S(=O)(=O)NC(=O)c3ccc4c(c3)N(C[C@@H]3CCCN32)C[C@@]2(CCCc3cc(Cl)ccc32)CO4)CC1` [Compound 85], in test [1] (Homo sapiens, MOLP-8, 2 h), the half-maximal activity concentration (AC50) stood at 759 nM. For the same compound, in test [2], the inhibition constant (Ki) stood at 0.025 nM.
Taken in the same sequence, the figures for `C[C@@H]1[C@@H](C)C/C=C(\F)[C@H](C(=O)N(C)c2ccccc2)N2CCC[C@H]2CN2C[C@@]3(CCCc4cc(Cl)ccc43)COc3ccc(cc32)C(=O)NS1(=O)=O` [Compound 28] were 302 nM and 0.465 nM.
Taken in the same sequence, the figures for `C[C@@H]1[C@@H](C)C/C=C(\F)[C@H](C(=O)N(C)C2CCCOC2)N2CCC[C@H]2CN2C[C@@]3(CCCc4cc(Cl)ccc43)COc3ccc(cc32)C(=O)NS1(=O)=O` (single isomer, unassigned) [Compound 62] were 134 nM and 0.058 nM.
For the compound `C[C@@H]1[C@@H](C)C/C=C(\F)[C@@H](C(=O)N2C[C@H]3C[C@@H]2CO3)N2CCC[C@H]2CN2C[C@@]3(CCCc4cc(Cl)ccc43)COc3ccc(cc32)C(=O)NS1(=O)=O` [Compound 10], in test [1] (Homo sapiens, MOLP-8, 2 h), the AC50 was found to be 285 nM. Moreover, in test [2], the inhibition constant (Ki) came out at 0.227 nM.
`C[C@@H]1[C@@H](C)C/C=C(\F)[C@H](C(=O)N(C)C2CCCOC2)N2CCC[C@H]2CN2C[C@@]3(CCCc4cc(Cl)ccc43)COc3ccc(cc32)C(=O)NS1(=O)=O` (single isomer, unassigned) [Compound 63]: in test [1], the half-maximal activity concentration (AC50) amounted to 57.4 nM. For the same compound, in test [2], the Ki worked out at 0.041 nM.
As to `C[C@@H]1[C@@H](C)C/C=C(\F)[C@H](C(=O)N(C)Cc2nnnn2C)N2CCC[C@H]2CN2C[C@@]3(CCCc4cc(Cl)ccc43)COc3ccc(cc32)C(=O)NS1(=O)=O` [Compound 66], the half-maximal activity concentration (AC50) in test [1] (Homo sapiens, MOLP-8, 2 h) was 357 nM. Also, the Ki in test [2] was determined as 0.025 nM.
For the compound `C[C@@H]1[C@@H](C)C/C=C(\F)[C@H](C(=O)N2CCC(F)(F)CC2)N2CCC[C@H]2CN2C[C@@]3(CCCc4cc(Cl)ccc43)COc3ccc(cc32)C(=O)NS1(=O)=O` [Compound 43], the AC50 in test [1] (Homo sapiens, MOLP-8, 2 h) amounted to 399 nM. Besides, in test [2], the Ki is 0.438 nM.
Taken in the same sequence, the figures for `C[C@@H]1[C@@H](C)C/C=C(\F)[C@H](C(=O)N2CCN(C)CC2)N2CCC[C@H]2CN2C[C@@]3(CCCc4cc(Cl)ccc43)COc3ccc(cc32)C(=O)NS1(=O)=O` [Compound 13] were 297 nM and 0.059 nM.
Taken in the same sequence, the figures for `COC1CN(C(=O)[C@H]2/C(F)=C/C[C@H](C)[C@@H](C)S(=O)(=O)NC(=O)c3ccc4c(c3)N(C[C@@H]3CCCN32)C[C@@]2(CCCc3cc(Cl)ccc32)CO4)C1` [Compound 25] were 154 nM and 0.072 nM.
Taken in the same sequence, the figures for `Cc1nc(CN(C)C(=O)[C@H]2/C(F)=C/C[C@H](C)[C@@H](C)S(=O)(=O)NC(=O)c3ccc4c(c3)N(C[C@@H]3CCCN32)C[C@@]2(CCCc3cc(Cl)ccc32)CO4)co1` [Compound 80] were 134 nM and 0.079 nM.
Take `COCCN(CCOC)CCN(C)C(=O)[C@H]1/C(F)=C/C[C@H](C)[C@@H](C)S(=O)(=O)NC(=O)c2ccc3c(c2)N(C[C@@H]2CCCN21)C[C@@]1(CCCc2cc(Cl)ccc21)CO3` [Compound 73]: in test [1] (Homo sapiens, MOLP-8, 2 h), the AC50 was found to be 91.4 nM. In addition, in test [2], the inhibitory constant (Ki) amounted to 0.021 nM.
On to `C[C@@H]1[C@@H](C)C/C=C(\F)[C@H](C(=O)N(C)CC2CCCOC2)N2CCC[C@H]2CN2C[C@@]3(CCCc4cc(Cl)ccc43)COc3ccc(cc32)C(=O)NS1(=O)=O` (single isomer, unassigned) [Compound 65], for which the concentration at half-maximal activity (AC50) in test [1] turned out to be 56.7 nM. Further, the inhibition constant Ki in test [2] was 0.062 nM.
Turning to `C[C@@H]1[C@@H](C)C/C=C(\F)[C@H](C(=O)N2CCOC[C@@H]2C)N2CCC[C@H]2CN2C[C@@]3(CCCc4cc(Cl)ccc43)COc3ccc(cc32)C(=O)NS1(=O)=O` [Compound 12], in test [1] (Homo sapiens, MOLP-8, 2 h), the half-maximal activity concentration (AC50) was 196 nM. The inhibition constant Ki in test [2] was found to be 0.069 nM.
`C[C@@H]1[C@@H](C)C/C=C(\F)[C@H](C(=O)N2CC3(CSC3)C2)N2CCC[C@H]2CN2C[C@@]3(CCCc4cc(Cl)ccc43)COc3ccc(cc32)C(=O)NS1(=O)=O` [Compound 15]: the AC50 in test [1] (Homo sapiens, MOLP-8, 2 h) turned out to be 435 nM. For the same compound, in test [2], the Ki worked out at 0.162 nM.
Taken in the same sequence, the figures for `C[C@@H]1[C@@H](C)C/C=C(\F)[C@H](C(=O)N(C)CC2COCCO2)N2CCC[C@H]2CN2C[C@@]3(CCCc4cc(Cl)ccc43)COc3ccc(cc32)C(=O)NS1(=O)=O` (single isomer, unassigned) [Compound 54] were 76.4 nM and 0.042 nM.
Taken in the same sequence, the figures for `C[C@@H]1CN(C(=O)[C@H]2/C(F)=C/C[C@H](C)[C@@H](C)S(=O)(=O)NC(=O)c3ccc4c(c3)N(C[C@@H]3CCCN32)C[C@@]2(CCCc3cc(Cl)ccc32)CO4)CCN1C` [Compound 23] were 101 nM and 0.054 nM.
Consider `C[C@@H]1[C@@H](C)C/C=C(\F)[C@H](C(=O)N(C)CC2COCCO2)N2CCC[C@H]2CN2C[C@@]3(CCCc4cc(Cl)ccc43)COc3ccc(cc32)C(=O)NS1(=O)=O` (single isomer, unassigned) [Compound 55], for which, in test [1], the half-maximal activity concentration (AC50) stood at 81.2 nM. For the same compound, the Ki in test [2] was 0.037 nM.
With `COCCN1CCN(C(=O)[C@H]2/C(F)=C/C[C@H](C)[C@@H](C)S(=O)(=O)NC(=O)c3ccc4c(c3)N(C[C@@H]3CCCN32)C[C@@]2(CCCc3cc(Cl)ccc32)CO4)CC1` [Compound 38], the AC50 in test [1] (Homo sapiens, MOLP-8, 2 h) stood at 187 nM. Further, the inhibition constant Ki in test [2] was 0.051 nM.
In the case of `C[C@@H]1[C@@H](C)C/C=C(\F)[C@H](C(=O)N(C)CC2CCCOC2)N2CCC[C@H]2CN2C[C@@]3(CCCc4cc(Cl)ccc43)COc3ccc(cc32)C(=O)NS1(=O)=O` (single isomer, unassigned) [Compound 64], the half-maximal activity concentration (AC50) in test [1] (Homo sapiens, MOLP-8, 2 h) stood at 74.7 nM. Further, in test [2], the Ki amounted to 0.083 nM.
Taken in the same sequence, the figures for `C[C@@H]1COCCN1C(=O)[C@H]1/C(F)=C/C[C@H](C)[C@@H](C)S(=O)(=O)NC(=O)c2ccc3c(c2)N(C[C@@H]2CCCN21)C[C@@]1(CCCc2cc(Cl)ccc21)CO3` (single isomer, unassigned) [Compound 11] were 163 nM and 0.032 nM.
Taken in the same sequence, the figures for `C[C@@H]1[C@@H](C)C/C=C(\F)[C@H](C(=O)N(C)C2CCCOC2)N2CCC[C@H]2CN2C[C@@]3(CCCc4cc(Cl)ccc43)COc3ccc(cc32)C(=O)NS1(=O)=O` (stereo partly drawn) [Compound 58] were 55.7 nM and 0.041 nM.
